Reference: paper PMC4424274, “Evaluation of [^11C]CB184 for imaging and quantification of TSPO overexpression in a rat model of herpes encephalitis” (European Journal of Nuclear Medicine and Molecular Imaging, 2015)
Where “and” joins values, the source holds several entries; their conditions need not be identical. Equal entries are not always repeated. Where two headings read alike, the source gives them in different places. Each block holds one compound with its values, some of them ahead of it.

Tests used:
TSPO [1] = target: T1, TSPO (Rattus norvegicus, UniProt P16257); details: HSE rat model; cited from earlier work
T1 construct: from tissue; host or cells: Brain regions and peripheral organs of male Wistar rats, measured in vivo by PET and ex vivo by gamma counting

[2] = lipophilicity; cited from earlier work
[3] = parameters: method as in PMID 19050880; details: cited from earlier work
TSPO [4] = target: T1, TSPO; assay: Kinetic modelling of PET data (2TCMR, Logan): BPND and VT; format: in vivo
Method: (§1) PET scans with arterial blood sampling were performed in a different set of rats to generate input for pharmacokinetic modelling. For the arterial blood sampling a cannula was inserted into the femoral artery after induction of anaesthesia. The femoral vein was additionally cannulated for PET tracer injection. After cannulation, the rats were positioned in the camera and a transmission scan was acquired using a ^57Co point source. […] A 0.1 ml blood sample of was taken at 0, 5, 10, 15, 20, 30, 45, 60, 75, 90, 120, 180, 300, 450, 600, 900, 1,800 and 3,600 s after injection. A larger blood sample of 0.5 ml was taken at three time points (5, 15, 30 and/or 60 min) for metabolite analysis. After collection of each blood sample, heparinized saline was injected to prevent large changes in blood pressure. A 25 μl aliquot of whole blood was extracted from each sample for radioactivity measurement. The remainder of each sample was centrifuged at 13,000 rpm (15,996 g) for 8 min, and 25 μl plasma was taken for radioactivity measurement. The radioactivity in blood and plasma was measured with a gamma counter.
The TACs of those rats in which blood sampling was performed, together with their corresponding whole-blood and metabolite-corrected plasma curves, were used for pharmacokinetic modelling using PMOD v3.3 (PMOD Technologies, Zürich, Switzerland). […] The reversible two-tissue compartment model (2TCMR) with K 1/k 2 fixed to the whole cortex value and a fixed blood volume of 3 % were used to calculate the V T and nondisplaceable binding potential (BPND, calculated as k 3/k 4 [29]).

[5] = Plasma clearance and plasma metabolite analysis; format: in vivo, rat; details: metabolite-corrected plasma, intravenous injection, rats
Method: as §1
Radioactive metabolites in plasma were measured using the extra blood samples taken at three time points during each scan (5, 15, 30 and/or 60 min). After centrifugation and collection of the plasma sample for radioactive measurement, as described above, the remaining plasma was diluted with acetonitrile (1.5 times the amount of plasma) and vortex-mixed. The plasma suspension was centrifuged at 5,300 rpm (3,030 g) for 3 min, and divided into supernatant and pellet. […] Fractions of 30 s were collected and measured in the gamma counter.
The percentage of metabolites in plasma was calculated by fitting an exponential function to the values obtained from the HPLC analysis. The plasma values obtained from the blood samples during the PET scan were then corrected for the presence of these metabolites, and used together with the whole-blood curve for further analysis. Metabolite corrected plasma TACs were fitted for each individual rat using iterative nonlinear least-squares fitting to the biexponential equation: SUVt = Ae^−αt + Be^−βt, where SUVt is the plasma SUV at time t, α and β are the apparent distribution and elimination rate constants (s^−1), respectively, and A and B are the corresponding zero-time intercepts. The weighting factors were the reciprocals of the plasma SUV squared. Distribution and elimination half-lives (seconds) were calculated as the natural logarithm of 2 divided by α and β, respectively.

TSPO [6] = target: T1, TSPO; assay: Ex vivo biodistribution of [^11C]CB184 in control and HSE rats; details: 5 mg/kg unlabelled PK11195 5 min before tracer injection; control and HSE rats
Method: PET scans were performed using a microPET Focus 220 camera (Siemens Medical Solutions Inc., Malvern, PA) on either day 6 or day 7 after inoculation with HSV-1 [18], depending on the severity of clinical symptoms. The rats were anaesthetized with 5 % isoflurane mixed with medical air at a flow rate of […]. After induction, anaesthesia was maintained with 1.5 – 2 % of isoflurane. The anaesthetized rats were positioned in the camera in a supine position with the head in the field of view. The PET tracer [^11C]CB184 was manually injected via the penile vein, and at the same time a dynamic 60-min scan was started. […] For 30 min the animals were kept under anaesthesia on the operation table after injection of the PET tracer into the penile vein, and were then placed in the scanner for a 30-min dynamic scan. A transmission scan was obtained in all rats using a ^57Co point source for attenuation and scatter correction. In the pretreated group, 5 mg/kg unlabelled PK11195 (Sigma-Aldrich, St. Louis, MO) in dimethyl sulphoxide (DMSO) at a concentration of 10 mg/ml was administered via a tail vein 5 min before injection of the PET tracer.
The brain and peripheral organs were excised and dissected, and blood was centrifuged to collect a plasma sample. Tissues were weighed and radioactivity was measured in a gamma counter (LKB Wallac, Turku, Finland). Tracer uptake in each region was corrected for the injected tracer dose and body weight and expressed as standardized uptake value (SUV), which was defined as: radioactivity (MBq/cm^3)/[injected dose (MBq)/body weight (g)].

[7] = control rats (PBS group), k3/k4

Structure (SMILES): COc1ccc(O[11CH3])c(CN(C(C)=O)c2cc(F)ccc2Oc2ccccc2)c1 [[^11C]DAA1106]
- Uptake in vivo in HSE rats vs. control rats (TSPO [1]): did not show significantly higher uptake

- Binding potential (BPND), Amygdala (TSPO [4]; HSE group, k3/k4): 1.92 ± 0.73
- Binding potential (BPND), Cerebellum (TSPO [4]; HSE group, k3/k4): 1.89 ± 0.39
- Binding potential (BPND), Frontal cortex (TSPO [4]; HSE group, k3/k4): 1.54 ± 0.54
- Binding potential (BPND), Hippocampus (TSPO [4]; HSE group, k3/k4): 1.39 ± 0.58
- Binding potential (BPND), Hypothalamus (TSPO [4]; HSE group, k3/k4): 2.28 ± 0.84
- Binding potential (BPND), Midbrain (TSPO [4]; HSE group, k3/k4): 1.34 ± 0.42
- Binding potential (BPND), Olfactory bulb (TSPO [4]; HSE group, k3/k4): 4.03 ± 1.20
- Binding potential (BPND), Pons (TSPO [4]; HSE group, k3/k4): 2.44 ± 0.41
- Binding potential (BPND), Rest cortices (TSPO [4]; HSE group, k3/k4): 1.62 ± 0.60
- Binding potential (BPND), Septum (TSPO [4]; HSE group, k3/k4): 1.34 ± 0.57
- Binding potential (BPND), Striatum (TSPO [4]; HSE group, k3/k4): 1.03 ± 0.43
- Binding potential (BPND), Thalamus (TSPO [4]; HSE group, k3/k4): 1.03 ± 0.51
- Binding potential (BPND), Whole brain (TSPO [4]; HSE group, k3/k4): 1.72 ± 0.49
- Binding potential (BPND), Amygdala (TSPO [4]; [7]): 1.65 ± 0.62
- Binding potential (BPND), Cerebellum (TSPO [4]; [7]): 1.51 ± 0.60
- Binding potential (BPND), Frontal cortex (TSPO [4]; [7]): 1.35 ± 0.51
- Binding potential (BPND), Hippocampus (TSPO [4]; [7]): 0.98 ± 0.44
- Binding potential (BPND), Hypothalamus (TSPO [4]; [7]): 1.92 ± 0.82
- Binding potential (BPND), Medulla (TSPO [4]; [7]): 1.7 ± 0.6 and 1.65 ± 0.60
- Binding potential (BPND), Midbrain (TSPO [4]; [7]): 0.96 ± 0.49
- Binding potential (BPND), Olfactory bulb (TSPO [4]; [7]): 3.76 ± 1.16
- Binding potential (BPND), Pons (TSPO [4]; [7]): 1.74 ± 0.69
- Binding potential (BPND), Rest cortices (TSPO [4]; [7]): 1.33 ± 0.46
- Binding potential (BPND), Septum (TSPO [4]; [7]): 1.20 ± 0.38
- Binding potential (BPND), Striatum (TSPO [4]; [7]): 0.88 ± 0.33
- Binding potential (BPND), Thalamus (TSPO [4]; [7]): 0.75 ± 0.35
- Binding potential (BPND), Whole brain (TSPO [4]; [7]): 1.38 ± 0.49
- Increase of BPND in the medulla, HSE rats vs. control rats (TSPO [4]; medulla): 55%
- Distribution half-life in plasma [5]: 0.367 ± 0.12 min
- Elimination half-life in plasma [5]: 65 ± 46 min
Structure (SMILES): CC[C@@H](C)N([11CH3])C(=O)c1cc2ccccc2c(-c2ccccc2Cl)n1 [(R)-[^11C]PK11195, reference compound]
- logP [2]: 2.54
- Percentage of unchanged tracer in rat brain homogenate ([3]; 20 min after injection): 93 ± 4%
- Percentage of unchanged tracer in rat brain homogenate ([3]; 40 min after injection): 90 ± 7%

Structure (SMILES): CCC(C)N(C)C(=O)c1cc2ccccc2c(-c2ccccc2Cl)n1 (centres unmarked) [PK11195, reference compound]
- Effect of pretreatment on [^11C]CB184 binding to TSPO (TSPO [6]): blocked
